Results published in patent US20260061027A1 (NeuroTher, LLC, priority 2024, published 2026).

Experiment: In vitro metabolic stability of hepatocytes
Settings: Mouse hepatocytes, 0.5 ×10^6 cells/mL

With O=c1ccc2ccc(O)cc2o1 [7-Hydroxycoumarin] the “T1/2” value was 3.0 min.
